# Columns and labels:
# rat P2X4 = molecular target: T1, rat P2X4 (Rattus norvegicus, UniProt P51577); assay: FLIPR Method for Rat P2X4 1321N1 Astrocytoma Cells; type: cell-based; conditions: 1321N1 stably expressing rat P2X4; agonist MgATP 5 μM (EC80)
# T1 construct: expressed in transfected cells
# T1 sequence (P51577 1-388): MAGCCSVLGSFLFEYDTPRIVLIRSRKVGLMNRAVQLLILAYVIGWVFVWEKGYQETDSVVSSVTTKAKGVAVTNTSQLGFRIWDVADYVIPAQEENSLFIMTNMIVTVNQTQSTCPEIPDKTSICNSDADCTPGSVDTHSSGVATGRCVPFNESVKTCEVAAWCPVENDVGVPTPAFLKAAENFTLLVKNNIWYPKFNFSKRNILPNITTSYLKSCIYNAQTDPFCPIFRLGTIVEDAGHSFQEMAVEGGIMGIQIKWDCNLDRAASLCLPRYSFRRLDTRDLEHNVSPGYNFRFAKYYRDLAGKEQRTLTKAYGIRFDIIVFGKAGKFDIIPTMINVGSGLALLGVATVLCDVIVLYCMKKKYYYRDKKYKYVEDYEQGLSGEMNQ
# Outline: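 1321N1 cells stably expressing rat P2X4, Fluo8-AM loaded; compounds (25 μM to 1 nM final, ten concentrations) preincubated 30 min at room temperature, then MgATP added at 5 μM (EC80). Calcium fluorescence read on FLIPR before and after agonist; triplicate data normalized to agonist control, four-parameter fit gives IC50.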
# [1] = test system: intraplantar Complete Freund's Adjuvant (CFA)-induced acute inflammatory pain; assay: CFA Inflammation Model in Rats with Pain Behaviour Read Out; type: in vivo, male Sprague Dawley rats; conditions: for PWT 2 hour-post drug: mean PWT
# Method: Compound was tested in the model of intraplantar Complete Freund's Adjuvant (CFA)-induced acute (48-hours setting) inflammatory pain in male Sprague Dawley rats. Briefly, 25 μl of CFA at 1 mg/ml was injected into the plantar surface of one hind paw. Mechanical hyperalgesia was measured using the Pressure Application Measurement apparatus (Ugo Basile, Gemonio, Italy). A linearly increasing pressure was applied to an area of approximately 50 mm^2 of the plantar side of the hind paw until a behavioural response (paw withdrawal) was observed or until the pressure reached 1000 grams of force (gf). The pressure at which the behavioural response occurred was recorded as the “Paw Withdrawal Threshold” (PWT). Both CFA-injected and contralateral PWTs were determined for each rat, in each treatment group and at each time point of the studies. The measurements were performed blinded. […] Compound or vehicle (10% DMSO, 40% Solutol, 50% water for injection, vol/vol) were dosed via oral route (p.o.) once daily (QD) or twice daily (BID) during 3 days, starting before CFA injection. Data were expressed as the mean PWT for each treatment group and at each time point. PWT data were analysed by performing a two way ANOVA with repeated measures (time×treatment). Planned comparison of means (each versus vehicle) was performed by using a Dunnett's post hoc test, provided that a main effect was detected. For p values less than 0.05, the results were deemed to be statistically significant.
structure (smiles),measurement,setting,value
"CC(=O)N(c1ccc(F)c(F)c1)c1cc(NC(=O)Cc2ccc(F)cc2Cl)ccn1 [Example 68, N-{4-[2-(2-chloro-4-fluorophenyl)acetamido]pyridin-2-yl}-N-(3,4-difluorophenyl)acetamide]",IC50,rat P2X4,233 nM
same,Rat P2X4 1321N1 Astrocytoma Cells (FLIPR Assay) avg Efficacy,rat P2X4,89%
same,PWT 2 hour-post drug,"[1]; rat CFA, 10 mg/kg BID p.o. during 3 days",630 gf
same,PWT 2 hour-post drug,"[1]; rat CFA, 30 mg/kg BID p.o. during 3 days",648 gf
same,PWT 2 hour-post drug,"[1]; rat CFA, 100 mg/kg BID p.o. during 3 days",759 gf
same,pain after treatment,"[1]; rat CFA, 10, 30 and 100 mg/kg doses BID, 2 hours after last administration",significantly reduced pain
same,development of inflammatory pain after the injection of CFA,"[1]; rat, oral administration BID during 3 days",prevented the development of inflammatory pain
